In brackets after ≈: the same amount, converted by molar mass. Where two headings read alike, the source gives them in different places.
Columns and labels:
[1] = test system: Bacillus subtilis ATCC 6633; assay: Broth microdilution MIC/MBC, antibacterial; type: cell-based; details: ATCC6633
Procedure: (§1) The minimal inhibitory concentration (MIC) was determined with the microdilution technique using 96-well polystyrene microplates (Medlab, Poland), as indicated by the European Committee on Antimicrobial Susceptibility Testing (EUCAST) guidelines. In this process, stock solutions of each tested Schiff base dissolved in dimethylsulphoxide (DMSO, Stanlab, Poland) were used at a concentration of 50 mg/mL. Before in vitro antibacterial activity detection, the basic concentration of 1000 µg/mL of each compound was prepared with Mueller–Hinton broth medium (MHB, BioMaxima, Lublin, Poland). The experiment was prepared using Mueller–Hinton broth medium in 96-well microplates. A series of two-fold dilutions of the tested compounds in the concentration range from 0.49 to 1000 μg/mL was made in culture broth medium. Then, 2 μL of bacterial inoculum with a density of 0.5 McFarland standard was added to each well. Each well was filled with a total volume of 100 μL. Then, the microtiter plates were incubated for 18 ± 2 h at 35 °C. After the incubation, the results were spectrophotometrically determined in Biotek ELx800 (Biokom, Janki, Poland) at 600 nm (OD600). The lowest concentration of the tested compounds with the absence of bacterial growth was determined as an MIC. Three replicates for each strain and compound were performed.
(§2) After incubation, 5 μL of the broth media cultured with bacteria or fungi were removed from each well of the plates used in the MIC experiments. Next, they were culturd onto the surface of the MHA medium (BioMaxima, Lublin, Poland) plate for bacteria or MHA +2% glucose plate for yeasts. The inoculated plates were incubated in the conditions mentioned above. After incubation, a visual reading of MBC or MFC values was made. […] Three replicates for each strain and compound were performed.

[2] = test system: Micrococcus luteus ATCC 10240; assay: Broth microdilution MIC/MBC, antibacterial; type: cell-based; details: ATCC10240
Procedure: as §1, §2

[3] = test system: Pseudomonas aeruginosa ATCC 27853; assay: Broth microdilution MIC/MBC, antibacterial; type: cell-based; details: ATCC27853
Procedure: as §1, §2

[4] = test system: Staphylococcus aureus ATCC 6538; assay: Broth microdilution MIC/MBC, antibacterial; type: cell-based; details: ATCC6538
Procedure: as §1, §2

[5] = test system: Staphylococcus epidermidis ATCC 12228; assay: Broth microdilution MIC/MBC, antibacterial; type: cell-based; details: ATCC12228
Procedure: as §1, §2

[6] = test system: Candida albicans ATCC 10231; assay: Broth microdilution MIC/MFC, antifungal; type: cell-based; details: for MIC: ATCC10231; for MFC: ATCC10231, read-out: MFC
Procedure: (§3) To determine the antifungal activity of the newly synthesized Schiff bases against the reference strains of Candida spp., the broth microdilution method was used according to the EUCAST [52] and Clinical and Laboratory Standards Institute (CLSI) guidelines with some modifications to the medium. Before in vitro antifungal activity detection, the basic concentration of 1000 µg/mL of each compound was prepared with Mueller–Hinton broth (BioMaxima, Lublin, Poland) supplemented with 2% glucose (MHB+2% glucose). […] The final concentrations of the Schiff bases ranged from […] to 1000 µg/mL. All the reference strains of Candida spp. used were first subcultured to the Mueller–Hinton agar medium (BioMaxima, Lublin, Poland) with 2% glucose (MHA +2% glucose) at 37 °C for 24 h. Next, 2 µL of appropriate fungal suspensions was added to each well containing 100 µL of MHB + 2% glucose and the various concentrations of the tested Schiff bases.
as §2

Candida auris CDC B11903 = assay: Broth microdilution MIC/MFC, antifungal; type: cell-based; details: Candidozyma auris, CDCB11903
Procedure: as §3, §2

[7] = test system: Candida glabrata ATCC 15126; assay: Broth microdilution MIC/MFC, antifungal; type: cell-based; details: Nakaseomyces glabratus, ATCC15126
Procedure: as §3, §2

[8] = test system: Candida glabrata ATCC 90030; assay: Broth microdilution MIC/MFC, antifungal; type: cell-based; details: Nakaseomyces glabratus, ATCC90030
Procedure: as §3, §2

[9] = test system: Candida krusei ATCC 14243; assay: Broth microdilution MIC/MFC, antifungal; type: cell-based; details: Pichia kudriavzevii, ATCC14243
Procedure: as §3, §2

[10] = test system: Candida lusitaniae ATCC 3449; assay: Broth microdilution MIC/MFC, antifungal; type: cell-based; details: Clavispora lusitaniae, ATCC3449
Procedure: as §3, §2

[11] = test system: Candida tropicalis ATCC 1369; assay: Broth microdilution MIC/MFC, antifungal; type: cell-based; details: ATCC1369
Procedure: as §3, §2

MDA-MB-231 = assay: MTT cell viability assay; type: cell-based, human; details: Homo sapiens, MDA-MB-231, MTT, read-out: Cytotoxic activity IC50
Procedure: (§4) All the cell lines were purchased from the American Type Culture Collection (ATCC, Rockville, MD, USA) and cultured in strictly defined conditions according to the recommended ATCC protocol. The PC3 cells were cultured in RPMI 1640 (Roswell Park Memorial Institute, Biowest SAS, Nuaillé, France), while the MDA-MB-231 and HaCaT cells were maintained in DMEM (Dulbecco’s Modified Eagle’s Medium, Biowest SAS, Nuaillé, France) supplemented with 1% streptomycin and penicillin and in 10% heat-inactivated fetal bovine serum (FBS, Gibco BRL San Francisco, CA, USA) with 1% streptomycin and penicillin. The cells were incubated in a 37 °C/5% CO2 humidified incubator. They were cultured until 80–90% confluence was achieved. Then, they were harvested by treatment with 0.25% trypsin-0.02% EDTA (Gibco BRL, San Francisco, CA, USA) and used in the experiments. Untreated cells were used as a control. […] After 24 h of incubation, the culture medium was replaced with a fresh medium. […] Then, the medium was aspirated and formed formazan crystals were solubilized by adding isopropanol-DMSO mixture (1:1 vol). The intensity of the dissolved crystals was measured using a UVM 340 reader (ASYS Hitech GmbH, Eugendorf, Austria) at a wavelength of 570 nm. Cell viability was estimated by the percentage of MTT reduction in cells to which the tested compounds were added, compared to the control sample, where only the medium was added. The experiments were repeated three times. The IC50 was calculated using GraphPad Prism 9.0.0 (GraphPad Software).

PC3 = assay: MTT cell viability assay; type: cell-based, human; details: Homo sapiens, PC-3, PC3, MTT, read-out: Cytotoxic activity IC50
Procedure: as §4

MTT cell viability assay = type: cell-based; details: human, HaCaT cells (immortal keratinocytes), HaCaT normal cell line, read-out: Cytotoxic activity IC50 (converted)
Procedure: as §4

[12] = test system: Escherichia coli ATCC 25922; assay: Broth microdilution MIC/MBC, antibacterial; type: cell-based; details: ATCC25922, Escherichia coli ATCC 25922
Procedure: as §1, §2

[13] = test system: Klebsiella pneumoniae ATCC 13883; assay: Broth microdilution MIC/MBC, antibacterial; type: cell-based; details: ATCC13883, Klebsiella pneumoniae ATCC 13883
Procedure: as §1, §2

Row | SMILES | MIC [1] [µg/mL] | MIC [2] [µg/mL] | MIC [3] [µg/mL] | MIC [4] [µg/mL] | MIC [5] [µg/mL] | MIC [6] [µg/mL] | MFC [6] [µg/mL] | MIC (Candida auris CDC B11903) [µg/mL] | MIC [7] [µg/mL] | MIC [8] [µg/mL] | MIC [9] [µg/mL] | MIC [10] [µg/mL] | MIC [11] [µg/mL] | IC50 (MDA-MB-231; 72 h (table footnote)) [µM] | IC50 (MDA-MB-231; same value in µg/mL) [µg/mL] | IC50 (PC3; 72 h (table footnote)) [µM] | IC50 (PC3; same value in µg/mL) [µg/mL] | IC50 at 72 h (MTT cell viability assay; 72 h (table footnote)) [µM] | IC50 at 72 h (MTT cell viability assay; same value in µg/mL) [µg/mL] | melting point [°C] | also measured
1 | Cc1cccc(C=Nn2c(-c3cccc(F)c3)n[nH]c2=S)c1 [RO9, 5-(3-fluorophenyl)-4-[(3-methylbenzylidene)amino]-2,4-dihydro-3H-1,2,4-triazole-3-thione] | 500 (≈ 1600 µM) | 125 (≈ 400 µM) | > 1000 | 125 (≈ 400 µM) | 250 (≈ 800 µM) | 1000 (≈ 3200 µM) | > 1000 | > 1000 | > 1000 | > 1000 | > 1000 | > 1000 | > 1000 | > 100 | > 31.2 | > 100 | > 31.2 | > 100 | > 31.2 | 232 to 234 | MBC [1]: > 1000 µg/mL; MBC [2]: > 1000 µg/mL; MBC [4]: > 1000 µg/mL; MBC [5]: > 1000 µg/mL
2 | CCCCOc1ccc(C=Nn2c(-c3cccc(F)c3)n[nH]c2=S)cc1 [RO8, 4-[(4-butoxybenzylidene)amino]-5-(3-fluorophenyl)-2,4-dihydro-3H-1,2,4-triazole-3-thione] | 1000 (≈ 2700 µM) | 125 (≈ 337 µM) | > 1000 | 250 (≈ 675 µM) | 250 (≈ 675 µM) | 500 (≈ 1350 µM) | > 1000 | > 1000 | 500 (≈ 1350 µM) | > 1000 | > 1000 | > 1000 | > 1000 | > 100 | > 37 | > 100 | > 37 | > 100 | > 37 | 183 to 185 | MIC [12]: 1000 µg/mL (≈ 2700 µM); MIC [13]: > 1000 µg/mL; MBC [2]: > 1000 µg/mL; MBC [4]: > 1000 µg/mL; MBC [5]: > 1000 µg/mL; MFC [7]: > 1000 µg/mL
3 | O=[N+]([O-])c1ccc(C=Nn2c(-c3cccc(F)c3)n[nH]c2=S)cc1 [RO3, 5-(3-fluorophenyl)-4-[(4-nitrobenzylidene)amino]-2,4-dihydro-3H-1,2,4-triazole-3-thione] | > 1000 | > 1000 | > 1000 | > 1000 | > 1000 | 500 (≈ 1460 µM) | – | 1000 (≈ 2910 µM) | 1000 (≈ 2910 µM) | > 1000 | 1000 (≈ 2910 µM) | 1000 (≈ 2910 µM) | 500 (≈ 1460 µM) | > 100 | > 34.3 | > 100 | > 34.3 | > 100 | > 34.3 | 230 to 231 | MIC [12]: > 1000 µg/mL; MIC [13]: > 1000 µg/mL
4 | COc1cccc(C=Nn2c(-c3cccc(F)c3)n[nH]c2=S)c1 [RO11, 5-(3-fluorophenyl)-4-[(3-methoxybenzylidene)amino]-2,4-dihydro-3H-1,2,4-triazole-3-thione] | > 1000 | > 1000 | > 1000 | > 1000 | > 1000 | 500 (≈ 1520 µM) | 1000 (≈ 3050 µM) | 1000 (≈ 3050 µM) | > 1000 | 500 (≈ 1520 µM) | 1000 (≈ 3050 µM) | > 1000 | 1000 (≈ 3050 µM) | > 100 | > 38.8 | > 100 | > 38.8 | > 100 | > 38.8 | 203 to 204 | MIC [12]: > 1000 µg/mL; MIC [13]: > 1000 µg/mL; MFC [8]: > 1000 µg/mL
5 | Cc1ccc(C=Nn2c(-c3cccc(F)c3)n[nH]c2=S)cc1 [RO1, 5-(3-fluorophenyl)-4-[(4-methylbenzylidene)amino]-2,4-dihydro-3H-1,2,4-triazole-3-thione] | > 1000 | > 1000 | > 1000 | > 1000 | > 1000 | 250 (≈ 800 µM) | > 1000 | > 1000 | > 1000 | > 1000 | > 1000 | > 1000 | > 1000 | > 100 | > 31.2 | > 100 | > 31.2 | > 100 | > 31.2 | 227 to 230 | MIC [12]: > 1000 µg/mL; MIC [13]: > 1000 µg/mL
6 | COc1ccccc1C=Nn1c(-c2cccc(F)c2)n[nH]c1=S [RO12, 5-(3-fluorophenyl)-4-[(2-methoxybenzylidene)amino]-2,4-dihydro-3H-1,2,4-triazole-3-thione] | > 1000 | > 1000 | > 1000 | > 1000 | > 1000 | 125 (≈ 381 µM) | > 1000 | 500 (≈ 1520 µM) | > 1000 | 500 (≈ 1520 µM) | 1000 (≈ 3050 µM) | 500 (≈ 1520 µM) | 500 (≈ 1520 µM) | > 100 | > 38.8 | > 100 | > 38.8 | 98.1 | 38.1 | 140 to 143 | MIC [12]: > 1000 µg/mL; MIC [13]: > 1000 µg/mL; MFC (Candida auris CDC B11903): > 1000 µg/mL; MFC [8]: > 1000 µg/mL; MFC [10]: > 1000 µg/mL; MFC [11]: > 1000 µg/mL

Source: article PMC10057893, “Synthesis and Biological Evaluation of New Schiff Bases Derived from 4-Amino-5-(3-fluorophenyl)-1,2,4-triazole-3-thione” (Molecules, 2023)
